US20210053957A1, “HERBICIDAL COMPOUNDS” (SYNGENTA PARTICIPATIONS AG, priority 2018, published 2021)

Experiments:
Assay in all cases: Post-emergence efficacy, glasshouse spray test
Type in all cases: in vivo
[1] = system: Amaranthus palmeri (AMAPA); conditions: Amaranthus palmeri, post-emergence, 312 h; Application Rate 500 g/Ha; evaluated after 13 days; read-out: Control of weed species after post-emergence application, AMAPA (100=total damage to plant; 0=no damage to plant)
How it was run: (§1)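 Foliar application to young potted plants, 14 days from sowing, grown and held under controlled glasshouse conditions (24/16° C, 65% humidity). Adjuvant: 0.25% or 1% Empicol ESC70 + 1% ammonium sulphate. Assessed at 13 days on a 0–100 damage scale.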

[2] = system: Chenopodium album (CHEAL); conditions: Chenopodium album, post-emergence, 312 h; Application Rate 500 g/Ha; evaluated after 13 days; read-out: Control of weed species after post-emergence application, CHEAL (100=total damage to plant; 0=no damage to plant)
How it was run: as §1

[3] = system: Digitaria sanguinalis (DIGSA); conditions: Digitaria sanguinalis, post-emergence, 312 h; Application Rate 500 g/Ha; evaluated after 13 days; read-out: Control of weed species after post-emergence application, DIGSA (100=total damage to plant; 0=no damage to plant)
How it was run: as §1

[4] = system: Echinochloa crus-galli (ECHCG); conditions: Echinochloa crus-galli, post-emergence, 312 h; Application Rate 500 g/Ha; evaluated after 13 days; read-out: Control of weed species after post-emergence application, ECHCG (100=total damage to plant; 0=no damage to plant)
How it was run: as §1

Eleusine indica (ELEIN) = conditions: Eleusine indica, post-emergence, 312 h; Application Rate 500 g/Ha; evaluated after 13 days; read-out: Control of weed species after post-emergence application, ELEIN (100=total damage to plant; 0=no damage to plant)
How it was run: as §1

[5] = system: Euphorbia heterophylla (EPHHL); conditions: Euphorbia heterophylla, post-emergence, 312 h; Application Rate 500 g/Ha; evaluated after 13 days; read-out: Control of weed species after post-emergence application, EPHHL (100=total damage to plant; 0=no damage to plant)
How it was run: as §1

[6] = system: Ipomoea hederacea (IPOHE); conditions: Ipomoea hederacea, post-emergence, 312 h; Application Rate 500 g/Ha; evaluated after 13 days; read-out: Control of weed species after post-emergence application, IPOHE (100=total damage to plant; 0=no damage to plant)
How it was run: as §1

Lolium perenne (LOLPE) = conditions: Lolium perenne, post-emergence, 312 h; Application Rate 500 g/Ha; evaluated after 13 days; read-out: Control of weed species after post-emergence application, LOLPE (100=total damage to plant; 0=no damage to plant)
How it was run: as §1

Setaia fabei (SETFA) = conditions: Setaria faberi, post-emergence, 312 h; Application Rate 500 g/Ha; evaluated after 13 days; read-out: Control of weed species after post-emergence application, SETFA (100=total damage to plant; 0=no damage to plant)
How it was run: as §1

Row | SMILES | pest or weed control at 500 g/ha [1] [%] | pest or weed control at 500 g/ha [2] [%] | pest or weed control at 500 g/ha [3] [%] | pest or weed control at 500 g/ha [4] [%] | pest or weed control at 500 g/ha (Eleusine indica (ELEIN)) [%] | pest or weed control at 500 g/ha [5] [%] | pest or weed control at 500 g/ha [6] [%] | pest or weed control at 500 g/ha (Lolium perenne (LOLPE)) [%] | pest or weed control at 500 g/ha (Setaia fabei (SETFA)) [%]
1 | Cc1nsc(-c2cc[n+](CCS(=O)(=O)[O-])nc2)n1 [Compound A10] | 60 | 80 | 50 | 30 | 60 | 60 | 50 | 60 | 60
2 | Cc1csc(-c2cc[n+](CCS(=O)(=O)[O-])nc2)n1 [Compound A13] | 90 | 70 | 30 | 40 | 80 | 90 | 40 | 60 | 60
3 | COC(=O)CCC[n+]1ccc(-c2nc(C)co2)cn1 [Compound A128] | 90 | 20 | 90 | 80 | 100 | 70 | 20 | 60 | 90
4 | CCOC(=O)c1oc(-c2cc[n+](CCC(=O)OC)nc2)nc1C [Compound A131] | 10 | 0 | 30 | 20 | 10 | 10 | 10 | 10 | 20
5 | CNC(=O)c1coc(-c2cc[n+](CCC(=O)O)nc2)n1 [Compound A127] | 100 | 100 | 90 | 80 | 70 | 70 | 60 | 20 | 70
6 | Cn1cnc(-c2cc[n+](CCS(=O)(=O)[O-])nc2)n1 [Compound A39] | 90 | 90 | 90 | 80 | 80 | 90 | 80 | 70 | 90
7 | O=S(=O)([O-])CC[n+]1ccc(-c2ccon2)cn1 [Compound A64] | 100 | 90 | 90 | 80 | 30 | 100 | 90 | 40 | 80
8 | Cn1ncnc1-c1cc[n+](CCS(=O)(=O)[O-])nc1 [Compound A16] | 100 | 100 | 70 | 80 | 80 | 90 | 80 | 90 | 80
9 | O=S(=O)([O-])CCC[n+]1ccc(-c2nccs2)cn1 [Compound A116] | 100 | 40 | 60 | 60 | 80 | 70 | 20 | 80 | 60
